≈ marks a conversion by molar mass, not a printed value.
Columns and labels:
Entamoeba histolytica [1] = assay: Activity of Entamoeba histolytica NTR1 at 50 uM
Entamoeba histolytica [2] = assay: Activity of Entamoeba histolytica NTR2 at 50 uM
Entamoeba histolytica [3] = assay: Activity of Entamoeba histolytica NTR3 at 50 uM
Giardia duodenalis = assay: Activity of Giardia lamblia NTR at 50 uM
Trichomonas vaginalis = assay: Activity of Trichomonas vaginalis NTR8 at 50 uM
Escherichia coli [4] = assay: Antimicrobial activity against Escherichia coli JM109 transformed with empty vector PQE30 after 16 hrs; assay type: functional, organism-based; conditions: JM109, JM 109, 16 h
Escherichia coli [5] = assay: Antimicrobial activity against Escherichia coli JM109 transformed with Entamoeba histolytica NTR1 after 16 hrs; assay type: functional, organism-based; conditions: JM109, JM 109, 16 h
Escherichia coli [6] = assay: Antimicrobial activity against Escherichia coli JM109 transformed with Entamoeba histolytica NTR2 after 16 hrs; assay type: functional, organism-based; conditions: JM109, JM 109, 16 h
Escherichia coli [7] = assay: Ratio of EC50 for Escherichia coli JM109 transformed with empty vector PQE30 to EC50 for Escherichia coli JM109 transformed with Entamoeba histolytica NTR1; assay type: functional
Escherichia coli [8] = assay: Ratio of EC50 for Escherichia coli JM109 transformed with empty vector PQE30 to EC50 for Escherichia coli JM109 transformed with Entamoeba histolytica NTR2; assay type: functional
Escherichia coli [9] = assay: Antimicrobial activity against Escherichia coli JM109 transformed with Entamoeba histolytica nim1 after 16 hrs; assay type: functional, organism-based; conditions: JM109, JM 109, 16 h
Escherichia coli [10] = assay: Antimicrobial activity against Escherichia coli JM109 transformed with Trichomonas vaginalis nim1 after 16 hrs; assay type: functional, organism-based; conditions: JM109, JM 109, 16 h
Escherichia coli [11] = assay: Ratio of EC50 for Escherichia coli JM109 transformed with empty vector PQE30 to EC50 for Escherichia coli JM109 transformed with Entamoeba histolytica nim1; assay type: functional
Escherichia coli [12] = assay: Ratio of EC50 for Escherichia coli JM109 transformed with empty vector PQE30 to EC50 for Escherichia coli JM109 transformed with Trichomonas vaginalis nim1; assay type: functional
Entamoeba histolytica [13] = assay: Activity of Entamoeba histolytica NIM1

Compound: Cc1ncc([N+](=O)[O-])n1CCO [METRONIDAZOLE]
- Km (Entamoeba histolytica [1]): 0.067 µM
- Vmax (Entamoeba histolytica [1]): 0.027 µmol/min
- Km (Entamoeba histolytica [2]): 0.081 µM
- Vmax (Entamoeba histolytica [2]): 0.031 µmol/min
- Km (Entamoeba histolytica [3]): 0.083 µM
- Vmax (Entamoeba histolytica [3]): 0.014 µmol/min
- Km (Giardia duodenalis): 0.206 µM
- Vmax (Giardia duodenalis): 0.347 µmol/min
- Km (Trichomonas vaginalis): 0.078 µM
- Vmax (Trichomonas vaginalis): 0.329 µmol/min
- EC50 (Escherichia coli [4]): 25 µg/mL (≈ 146 µM)
- EC50 (Escherichia coli [5]): 7 µg/mL (≈ 40.9 µM)
- EC50 (Escherichia coli [6]): 8 µg/mL (≈ 46.7 µM)
- Ratio EC50 (Escherichia coli [7]): 3
- Ratio EC50 (Escherichia coli [8]): 3
- EC50 (Escherichia coli [9]): 750 µg/mL (≈ 4380 µM)
- EC50 (Escherichia coli [10]): 500 µg/mL (≈ 2920 µM)
- Ratio EC50 (Escherichia coli [11]): 30
- Ratio EC50 (Escherichia coli [12]): 20
- Vmax (Entamoeba histolytica [13]): 0.057 µmol/min

Source: ChEMBL document CHEMBL1649121, “Giardia, Entamoeba, and Trichomonas enzymes activate metronidazole (nitroreductases) and inactivate metronidazole (nitroimidazole reductases)” (Antimicrob Agents Chemother, 2009)
